# Test results as given in patent US10827945B2, “Radiologically identified tumor habitats” (H. LEE MOFFITT CANCER CENTER AND RESEARCH INSTITUTE, INC., priority 2014, dated 2020).
# Key:
# [1] = test system: soft tissue sarcomas (STS); conditions: across all histological sub-types of STS; cited from earlier work
# [2] = test system: tumors in KPC mice; conditions: KPC (KrasG12D; p53R172H; Pdx1-Cre) GEMM; cited from earlier work
# [3] = test system: osteosarcoma xenotransplants; assay: Osteosarcoma xenotransplant models, ADC (diffusion MRI) and tumor response; type: in vivo, mouse; conditions: for anti-tumor response: osteosarcoma xenotransplants; for shift of ADC histograms: within 48 hr following treatment
# Text: Combined MRI and histology image analyses were used to examine effects of dasatinib+Tcn in a Ewings sarcoma model; and the response to a novel Wee-1 checkpoint inhibitor, MK1775, alone and in combination with gemcitabine in osteosarcoma xenotransplants [Kreahling J M, et al. Mol Cancer Ther. 2012 11(1):174-82; Kreahling J M, et al. PloS one. 2013 8(3):e57523]. In the Ewing's model, the pre-therapy spin-echo T2 and post-therapy response of ADC were compared to tumor volume changes.
# In the osteosarcoma xenotransplant models, the change in ADC was measured following treatment with gemcitabine and the wee-1 inhibitor MK-1775, alone and in combination. […] The change in ADC was highly correlated with tumor growth rate response. Also, the shapes of the histograms changed with response, going from Gaussian to a log-normal distributions, with increased skewness.
# At a deeper level of analysis, the ADC maps were analyzed for image entropy, which is calculated as the randomness of a 3×3 pixel matrix surrounding the pixel under test (P-U-T).
# [4] = test system: orthotopically implanted MiaPaCa2 PDAC cells; assay: DCE-MRI/diffusion MRI in orthotopically implanted MiaPaCa2 PDAC; type: in vivo; conditions: orthotopic MiaPaCa2
# Text: (§1) In a parallel study, DCE-MRI and Diffusion MRI were investigated as response biomarkers to TH-302 in flank implanted MiaPaCa2 pancreatic adenocarcinoma (PDAC) models. […] 2012 30(7):1002-9]. In a follow-on study, orthotopically implanted Hs766t, MiaPaCa2 and Su.86.86 PDAC cells were used, which have differential sensitivities to TH-302 as monotherapy.
# [5] = test system: flank implanted MiaPaCa2 pancreatic adenocarcinoma (PDAC); conditions: cited from earlier work
# [6] = test system: regions of profound hypoxia; conditions: cited from earlier work
# [7] = test system: orthotopically implanted Su.86.86 PDAC cells; assay: DCE-MRI/diffusion MRI in orthotopically implanted Su.86.86 PDAC; type: in vivo; conditions: orthotopic Su.86.86
# Text: as §1
# [8] = test system: orthotopically implanted Hs766t PDAC cells; assay: DCE-MRI/diffusion MRI in orthotopically implanted Hs766t PDAC; type: in vivo; conditions: orthotopic Hs766t
# Text: as §1
# [9] = based on phase I data; cited from earlier work
smiles,measurement,setting,value
"COc1cccc2c1C(=O)c1c(O)c3c(c(O)c1C2=O)C[C@@](O)(C(=O)CO)C[C@@H]3O[C@H]1C[C@H](N)[C@H](O)[C@H](C)O1 [DOX, doxorubicin]",response rate,[1],25-40%
Nc1ccn([C@@H]2O[C@H](CO)[C@@H](O)C2(F)F)c(=O)n1 [gemcitabine],sensitivity of tumors,[2],generally resistant
same,change in average ADC-entropy values from pre-treatment,[3]; compared to controls (p=0.022) and MK1775 (p=0.023),statistically larger variations in ADC values
same,anti-tumor response,[3],robust anti-tumor response
same,anti-tumor response,[3]; listed as Gem,responded to therapy
same,shift of ADC histograms,[3],shifted to the right
Cn1c(COP(=O)(NCCBr)NCCBr)cnc1[N+](=O)[O-] [TH-302],Ktrans in response to treatment,[4],decreases
same,mean ADC,[4],no changes
same,sensitivity as monotherapy,[4],responsive
same,ADC (diffusion MRI),[5]; at any time point,no differences
same,Ktrans (DCE-MRI),"[5]; initial change, strongly correlated with tumor control",drop
same,pO2 at which the warhead is released,[6],< 10 mm Hg
same,Ktrans in response to treatment,[7],not
same,mean ADC,[7],no changes
same,sensitivity as monotherapy,[7],resistant
same,Ktrans in response to treatment,[8],decreases
same,mean ADC,[8],no changes
same,sensitivity as monotherapy,[8],responsive
same,tolerability,[9],well-tolerated
C=CCn1c(=O)c2cnc(Nc3ccc(N4CCN(C)CC4)cc3)nc2n1-c1cccc(C(C)(C)O)n1 [MK-1775],anti-tumor response,[3],non-responsive
same,anti-tumor response,[3]; listed as MK1775,did not
same,shift of ADC histograms,[3],not
